# Values quoted from earlier work as cited in patent US7799547B2, “Purified polypeptides from Staphylococcus aureus” (Affinium Pharmaceuticals, Inc., priority 2003, dated 2010).
# What was measured:
# [1] = system: panel of clinical isolates of S. aureus; details: clinical isolates of S. aureus resistant to different classes of antibiotics
# [2] = system: MRSA strain WCUH29; details: rat, oral administration at 50 mg/kg
# [3] = biological target: E. coli FabI (Escherichia coli, UniProt P0AEK4)
# [4] = biological target: S. aureus FabI (Staphylococcus aureus, UniProt Q6GI75)
# Sequence of E. coli FabI (P0AEK4 whole entry): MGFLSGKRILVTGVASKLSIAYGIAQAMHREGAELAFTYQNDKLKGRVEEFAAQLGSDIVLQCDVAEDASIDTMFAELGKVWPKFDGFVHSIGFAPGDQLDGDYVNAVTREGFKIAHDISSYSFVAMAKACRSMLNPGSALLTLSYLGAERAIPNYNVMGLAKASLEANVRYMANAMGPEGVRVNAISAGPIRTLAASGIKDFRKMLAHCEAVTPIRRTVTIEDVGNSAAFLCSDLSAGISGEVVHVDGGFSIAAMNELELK
MIC90 fold lower than those of the commercial antibiotics tested [1],SMILES,Reduction in bacterial counts relative to untreated controls [2],Inhibition of E. coli FabI [3],Inhibition of S. aureus FabI [4]
> 500 fold,Cc1[nH]c2ccccc2c1CN(C)C(=O)/C=C/c1cnc2c(c1)CCC(=O)N2 [API-1135],3.5 log,–,–
–,Oc1c(Cl)cc(Cl)c(Cl)c1Cc1c(O)c(Cl)cc(Cl)c1Cl [hexachlorophene],–,inhibited,inhibited
–,Oc1cc(Cl)ccc1Oc1ccc(Cl)cc1Cl [triclosan],–,inhibited,inhibited
